Measurements: the METLIN SMRT retention time set (Domingo-Almenara et al. 2019)

Assay: gradient 5% acetonitrile 3 min, to 50% in 2 min, to 85% in 15 min, held 3 min, 100 µL/min
Details: column: Zorbax Extend-C18 2.1 x 50 mm; eluents: water / acetonitrile, 0.1% formic acid
In short: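 Data were gathered over 3 months by HPLC coupled to a quadrupole time-of-flight mass spectrometer, operated in positive and negative ionization mode. Mixtures of ~100 pure standards ran on a Zorbax Extend-C18 column (2.1 × 50 mm, 1.8 μm) at 100 μL/min, with water and acetonitrile each containing 0.1% formic acid and dead and dwell volumes of 40 μL and 900 μL. Retention time was read from adduct peaks picked by computer and checked manually.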

| Structure (SMILES) | RP-LC retention time [s] |
| --- | --- |
| COc1ccc(NC(=O)Cn2c(C)cc(-c3nnc(C4CC4)o3)c2C)cc1 | 779 |
| Cc1cc(Cl)ccc1NC(=O)N1CC(Cc2nc(-c3cnccn3)no2)C1 | 754 |
| CCOC(=O)c1c(S(=O)(=O)N2CCC(C(=O)Nc3ccc(C)c(F)c3)CC2)c(C)n(C)c1C | 924 |
| O=C(Cn1cnc2nc(N3CCC(C(=O)NC4CC4)CC3)sc2c1=O)NCc1ccco1 | 610 |
| O=C(NCc1ccc2c(c1)OCO2)C1CCCN(C(=O)C2Sc3ccccc3NC2=O)C1 (stereo unspecified) | 703 |
| O=c1cc[nH]c2c(C(F)(F)F)cccc12 | 609 |
| COc1cc(NC(=O)CN2CCc3[nH]c4c(C)ccc(F)c4c(=O)c3C2)cc(OC)c1 | 604 |
| Cc1noc(C)c1CNC(=O)c1ccc(C#N)cc1 | 675 |
| COC(=O)c1cc(S(=O)(=O)N2CCCC2C(=O)Nc2cccc(Br)c2)cn1C (stereo unspecified) | 963 |
| CCCCC(=O)N1CCN(c2nc3ccccc3cc2-c2noc(C)n2)CC1 | 913 |
| CC1(C)CCC(NC(=O)[C@@H](N)CCC(=O)O)CC1 | 654 |
| Cc1c(Cl)cccc1S(=O)(=O)Nc1ccccc1N1CCNC(=O)C1 | 738 |
| CCOC(=O)c1cccc(NC(=O)N2CCN(c3nc4ccccc4n3C)CC2)c1 | 644 |
| CCOC(=O)CNC(=O)N1CCN(Cc2nc3cc(Cl)ccc3o2)CC1 | 644 |
| CNC(=O)CCC[C@@H]1[C@H]2CCCN3CCC[C@@H](CN1C(=O)CC(C)C)[C@@H]23 | 568 |
| COc1ccc(NC(=O)Cn2c(C)cc(-c3nnc(-c4ccccc4)o3)c2C)cc1 | 927 |
| Cc1ccc(NC(=O)c2cn3c(n2)CCCC3)cc1C | 604 |
| CC(=O)N1CCC(C(=O)N2CCCn3cc(-c4ccccc4)nc32)CC1 | 602 |
| O=S(=O)(Nc1ccc(F)c(F)c1)c1ccc2nncn2c1 | 694 |
| Cc1ccccc1Cn1nc2c(S(=O)(=O)N3CCc4ccccc4C3)cccn2c1=O | 987 |
| COc1cc(OC)c(NC(=O)C2CCCN(c3ncnc4c3nc3n4CCCCC3)C2)cc1Cl (stereo unspecified) | 862 |
| O=C(Nc1nc(-c2ccc(F)cc2)cs1)c1cccc(F)c1 | 1060 |
| CS(=O)(=O)Nc1ccc(C2(C(=O)NCc3ccccc3F)CCCCC2)cc1 | 904 |
| COC1CCC12CCN(C(=O)Nc1ccc3c(c1)OCCO3)CC2 (stereo unspecified) | 742 |
| COc1ccc(C(=O)Nc2nc(CC(=O)Nc3ccc4c(c3)OCCO4)cs2)cc1 | 754 |
| CCCN(CCC)c1nc(C(=O)OCC)nc2ccccc12 | 812 |
| CCCCC(=O)Nc1ccc(N2CCOCC2)cc1C(=O)O | 578 |
| Cc1cc2nc(SCc3noc(CCC(=O)Nc4nc(-c5ccccc5)cs4)n3)[nH]c2cc1C | 814 |

Next, values leading:

| RP-LC retention time [s] | Structure (SMILES) |
| --- | --- |
| 837 | O=C(c1ccc(F)c(F)c1)N1CCN(c2cc(-c3ccc(F)cc3)[nH]n2)CC1 |
| 651 | O=C(NC1CCN(c2nnc3ccc(Cl)cn23)CC1)c1ccc(N2CCCC2=O)cc1 |
| 866 | COc1ccc(C(=O)N2CCCC2c2nc(-c3ccc(OC)c(OC)c3)no2)c(OC)c1 (stereo unspecified) |
| 678 | CC(NC(=O)Cn1cnc(-c2noc(-c3ccncc3)n2)c1)c1ccccc1 (stereo unspecified) |
| 1000 | CCN1C(SCC(=O)N(C)c2ccccc2)=NS(=O)(=O)c2ccccc21 |
| 1020 | Cc1cc(Cl)ccc1NC(=O)C1CCN(S(=O)(=O)c2c(C)nn(-c3ccccc3)c2C)CC1 |
| 995 | CC(=O)N1CCc2sc(S(=O)(=O)N3CCN(c4ccccc4C)CC3)cc2C1 |
| 681 | CCCN1CCN(C(=O)c2cn(-c3ccc(-c4nc(C(C)(C)C)no4)cn3)cn2)CC1 |
| 736 | CCOc1ccc(S(=O)(=O)N2CCCC(C(=O)NCCCO)C2)cc1C (stereo unspecified) |
| 676 | CCOc1ccc(NC(=O)NCCc2cn(C)c3ncccc23)cc1 |
| 939 | COC(=O)c1cc(S(=O)(=O)N2CCCC2C(=O)Nc2ccc(C)c(C)c2)cn1C (stereo unspecified) |
| 814 | Cc1ccc2nc(NC(=O)C3CCN(S(=O)(=O)c4ccc5[nH]c(=O)ccc5c4)CC3)sc2c1 |
| 851 | Cc1cc2c(cc1CNC(=O)Cn1c(C(F)(F)F)nc3cc4c(cc31)OCCO4)OCCCO2 |
| 711 | c1cc2c(cc1-c1noc(C3CCCCC3)n1)nnn2CCN1CCOCC1 |
| 819 | CC1CCN(S(=O)(=O)c2ccc3c(c2)CCCC(=O)N3CC(=O)N2CCCC2)CC1 |
| 830 | COc1ccccc1C(=O)N1CCN(c2nc3ccccc3n(C)c2=O)CC1 |
| 997 | O=C(NC1CCCC1)N1CCN(c2nc3ccccc3n(Cc3ccccc3)c2=O)CC1 |
| 875 | COC(=O)C1=CN(c2ccc(OC)cc2OC)c2cc(F)ccc2S1(=O)=O |
| 698 | O=C(c1n[nH]c2c1CCCC2)N1CCC2(CC1)N=C(c1ccccc1)NO2 |

| RP-LC retention time [s] | Structure (SMILES) |
| --- | --- |
| 594 | O=S(=O)(Nc1ccc(-c2ccc(N3CCCC3)nn2)cc1)c1ccc(Cl)s1 |
| 603 | COC(=O)c1ccccc1NC(=O)CSc1nc(C)cc(N2CCOCC2)n1 |
| 693 | O=C(Cn1c(=O)c(CCC(=O)NC2CC2)nc2ccccc21)NCc1ccccc1 |
| 1040 | COc1ccc(NC(=O)c2cc(C(C)C)n3nccc3n2)cc1 |
| 618 | O=C(c1cccc(Cl)c1)N(CCS(=O)(=O)N1CCNCC1)CC1CCCO1 (stereo unspecified) |
| 626 | O=S(=O)(c1cccc(F)c1)N1CCN(c2cnn3c(C4CC4)nnc3c2)CC1 |
| 995 | Cc1ccc(-c2ncc(C(=O)Nc3cc(C)ccc3F)c(-c3ccncc3)n2)cc1 |
| 594 | O=C(NCC1CCCO1)c1ccc2ncnc(N3CCCCC3)c2c1 (stereo unspecified) |
| 838 | O=C(c1ccc2c(c1)OCO2)N1CCC2(CC1)NC(=O)N(Cc1ccccc1Cl)C2=O |
| 924 | O=C(c1cc(-c2cccc(F)c2)ns1)N1CCCC1 |
| 665 | COc1cccc(NC(=O)Nc2c(-c3ccccc3)nc3ccccn23)c1 |
| 650 | CC(C)(C)C(O)CCNC(=O)C(=O)Nc1cccc(N2CCCCC2=O)c1 (stereo unspecified) |
| 936 | CCCn1cc(S(=O)(=O)Nc2ccc(C)cc2F)c2cccnc21 |
| 680 | Cc1cc(N2CCN(C(=O)Nc3cccc(F)c3)CC2)nc(N2CCCC2)n1 |
| 871 | CCC(C)(C)NC(=O)C1CCCN(S(=O)(=O)c2c[nH]c(C(=O)N3CCCCCC3)c2)C1 (stereo unspecified) |
| 930 | O=C(c1n[nH]c2ccccc12)N1CCCC1c1nc(-c2ccc(F)cc2F)no1 (stereo unspecified) |
| 922 | Cc1cc(C(=O)Nc2ccc(C)c(F)c2)n(CC(=O)Nc2ccc(F)cc2)n1 |
| 715 | O=C(CCC1CCCC1)N1CCN(C(=O)c2cc(-c3ccccn3)n[nH]2)CC1 |
| 742 | CC(C)C(=O)NCCC1CCN(C(=O)Nc2cc(F)ccc2F)CC1 |
